Laboratory results: patent US10201587B2, “Methods of inhibiting and treating biofilms using glycopeptide antibiotics” (MELINTA THERAPEUTICS, INC., priority 2008, dated 2019)
Converted amounts (≈) assume the structure as drawn. Like-named read-outs stand apart in the source and are kept apart here.

Assays:
[1] = system: MRSA ATCC 33591; experiment: Time-kill in nutrient-depleted CAMHB; type: cell-based, S. aureus; details: stationary-phase, 24-hour incubation, fCmax
Procedure: (§1) Nutrient-depleted CAMHB from each respective strain was prepared by 3 rounds of inoculation of CAMHB with exponential-phase bacteria, incubation overnight at 37° C. with rotation (225 rpm) and centrifugation (8000×g for 30 minutes) to remove bacteria. After the final round of inoculation, growth and centrifugation, the pH of the nutrient-depleted CAMHB was adjusted to pH=7.0 and the spent medium was filter-sterilized using a […] membrane (Corning Incorporated, Corning, N.Y.).
(§2) Nutrient-depleted CAMHB containing diluted antimicrobial agents was inoculated with stationary-phase bacteria from overnight cultures of the S. aureus strains at approximately 10^7 colony-forming units (CFU)/mL. Other experiments compared the killing of stationary- and exponential-phase S. aureus ATCC 29213 when inoculated into nutrient-depleted CAMHB containing the test agents. For assays involving daptomycin, nutrient-depleted CAMHB was supplemented with 50 μg/ml CaCl2 (8). All time-kill studies were performed in 96-well deep-well plates at 37° C. with rotation (225 rpm) in a total volume of 750 μL. Bacteria were enumerated by serial-dilution plating. Bacteriostatic and bactericidal activity of the antimicrobial agents were defined as a reduction in viable cell counts of <3 or ≥3 log at 24 hours relative to the starting inoculum, respectively (33). Experiments were repeated at least three times and produced similar results; results from one experiment are presented.

[2] = system: VRSA VRS5; experiment: Time-kill in nutrient-depleted CAMHB; type: cell-based, S. aureus; details: stationary-phase, 24-hour incubation, fCmax
Procedure: as §1, §2

[3] = system: MRSA ATCC 33591; experiment: MBEC system in vitro biofilm (MIC and MBEC); type: cell-based, S. aureus; details: for MBEC: 24-hour biofilm, 24 hours of exposure; for MIC: Staphylococcus aureus
Procedure: (§3) The commercially-available MBEC™ system (Innovotech; Edmonton, AB, Canada) was used following the manufacturer's protocol (17) to establish in vitro biofilms of S. aureus and to determine the minimal biofilm eradication concentration (MBEC) of oritavancin and comparator antimicrobial agents. The MBEC represents the concentration of antimicrobial agent required to sterilize the biofilm after 24 hours of exposure. The MBEC™ system also allows for the determination of the minimal inhibitory concentration (MIC) of the test agent against planktonic cells under the conditions of the biofilm assay.
(§4) 150 μL of bacterial inocula at 10^7 CFU/mL in tryptic soy broth was aliquoted into each well of an MBEC plate. Biofilms were established for 24 hours in a rotary incubator at 37° C. and 150 rpm. For experiments involving 72-hour biofilms, peg lids were transferred each day to 96-well plates containing 150 μL/well of fresh tryptic soy broth and incubated another 24 hours. Peg lids with established biofilms were washed once in sterile saline (200 μL/well) and then placed in plates containing antimicrobial agents diluted in CAMHB (200 μL/well). Antimicrobial agents were serially diluted in CAMHB in 96-well plates and peg lids were exposed for 24 hours or for the indicated times. Following antimicrobial challenge, peg lids were washed once in sterile saline then placed in recovery plates containing CAMHB (200 μL/well). The recovery plates were sonicated for 5 minutes in an ultrasonic sonicating bath (VWR Aquasonic model 550D) at the maximum setting then incubated for 24 hours and the MBECs recorded. MBECs were determined from at least three independent experiments; results represent the ranges of MBECs obtained. To enumerate the biofilm colony forming units (CFUs) on individual control pegs, pegs were broken off the lid using sterile forceps placed in 1 ml sterile saline, sonicated for 5 min and vortexed for 1 min at the highest setting. Bacteria were then enumerated by serial-dilution plating.
(§5) To prevent loss of oritavancin due to binding to vessel surfaces (3), the CLSI now recommends inclusion of 0.002% polysorbate-80 for oritavancin broth microdilution MIC determinations (9).

[4] = system: MSSA ATCC 29213; experiment: MBEC system in vitro biofilm (MIC and MBEC); type: cell-based, S. aureus; details: for MBEC: 24-hour biofilm, 24 hours of exposure; for MIC: Staphylococcus aureus
Procedure: as §3, §4, §5

[5] = system: VRSA VRS5; experiment: MBEC system in vitro biofilm (MIC and MBEC); type: cell-based, S. aureus; details: for MBEC: 24-hour biofilm, 24 hours of exposure; for MIC: Staphylococcus aureus, VRSA
Procedure: as §3, §4, §5

[6] = cited from earlier work; for estimated fCmax in plasma: human, in vivo, 200 mg
[7] = system: S. epidermidis ATCC 35984; experiment: MBEC plate biofilm eradication, agents in combination; type: cell-based
Excerpt: The following strains were used for in vitro biofilm studies: vancomycin (VAN)-susceptible Enterococcus faecalis ATCC 29212 (VSE), VAN-resistant E. faecalis ATCC 51299 (VanB VRE), E. faecium ATCC 51559 (VanA VRE), S. epidermidis ATCC 12228 and the slime-producing strain S. epidermidis ATCC 35984. Biofilms were established in MBEC™ Physiology & Genetics Assay plates (Innovotech; Edmonton, Canada).

[8] = system: MSSA ATCC 29213; experiment: Time-kill in nutrient-depleted CAMHB; type: cell-based, S. aureus; details: 24 hour time point, estimated fCmax
Procedure: as §1, §2

[9] = system: S. aureus ATCC 29213; experiment: Membrane depolarization, DiSC3(5) fluorescence; type: cell-based; details: 30 min
Procedure: Bacteria were grown overnight in CAMHB and sub-cultured the following day in CAMHB to exponential phase (OD600≈0.25). Exponential- and stationary-phase cells were washed in membrane assay buffer with or without 5 mM glucose, respectively, and resuspended at an OD600=0.25. DiSC3(5) was added to a final concentration of 1.5 μM and the solution was incubated in the dark at ambient temperature for 30 minutes to allow loading of the fluorescent dye into cell membranes. After the loading period, cells were diluted 50-fold (OD600=0.005) in depolarization buffer with or without glucose for exponential- or stationary-phase cells, respectively. Assays were initiated by the addition of antimicrobial agents over a range of concentrations and were monitored in real time by fluorescence spectroscopy (λex=612, λem=665) for a period of 30 minutes. […] Experiments were repeated three times and produced similar results; results from one assay are presented.

[10] = system: S. aureus ATCC 29213; experiment: Membrane permeability, SYTO-9/propidium iodide fluorescence; type: cell-based; details: 30 min
Procedure: For membrane permeability assays, bacteria were prepared identically as described above for the membrane depolarization assay with the exception that SYTO-9 and propidium iodide (Invitrogen Corporation) were added at 5 μM and 30 μM, respectively. Experiments were repeated three times and produced similar results; results from one assay are presented.

[11] = system: S. aureus ATCC 29213; experiment: Short duration (2 h) time-kill in membrane assay buffer; type: cell-based; details: for killing over short time course: fCmax
Procedure: Short duration (2 h) time-kill studies were performed in membrane assay buffer (see below) to characterize the killing of S. aureus ATCC 29213 under conditions used in the membrane depolarization and permeability assays. Exponential- and stationary-phase S. aureus ATCC 29213 cells were diluted to an OD600=0.005 (approx 10^6 CFU/mL) in membrane assay buffer (10 mM HEPES-C1, pH 7.5, 50 μg/mL CaCl2) with or without 5 mM glucose, respectively. Experiments were initiated by the addition of antimicrobial agents at the indicated concentrations and bacteria were enumerated by serial-dilution plating.

[12] = system: stationary-phase MRSA ATCC 43300; experiment: Ultrastructure by transmission electron microscopy of thin sections; type: cell-based, S. aureus; details: 3 hours in nutrient-depleted CAMHB; 1 μg/mL oritavancin, 16 μg/mL vancomycin
Procedure: Bacteria were fixed in 2.5% glutaraldehyde to cross-link proteins and help preserve morphological structure. Prior to embedding, the samples were treated with fresh 2.5% (vol/vol) glutaraldehyde in HEPES buffer (pH, 6.8) for 2 hours. The samples were then post-fixed in 2.0% (wt/vol) osmium tetroxide, followed by en bloc-staining with 2.0% (wt/vol) uranyl acetate, as a heavy-metal stain, to add contrast to the cells. The cells were then dehydrated through a series of ethanol washes then embedded in LR White resin. Once polymerized by curing, each culture sample was thin sectioned and stained by uranyl acetate and lead citrate so as to view the internal cellular constituents and the juxtaposition of cell envelope layers such as the plasma membrane and cell wall. Transmission electron microscopy was used to view the thin sections using a Philips CM10 under standard operating conditions at 100 kV.

[13] = system: exponentially-growing S. aureus (MSSA, MRSA, VRSA); details: actively dividing cells; cited from earlier work
[14] = oritavancin without polysorbate-80
[15] = planktonic cells shed from 24-hour peg biofilms, oritavancin without polysorbate-80, read-out: MIC

In the case of `CC(=O)NC[C@H]1CN(c2ccc(N3CCOCC3)c(F)c2)C(=O)O1` [Linezolid, linezolid], the “effect on bacterial cell numbers” value [1] is reported as “no effect”, the “effect on bacterial cell numbers” value [2] is reported as “no effect” and the MBEC [3, 14] is reported as >128 µg/mL. For the same molecule, the MIC [3, 15] was 2 to 4 µg/mL (≈ 5.93 to 11.9 µM), the MBEC [4, 14] was >128 µg/mL and the MIC ([4]; 72-hour biofilms, read-out: planktonic MIC) was 8 to 16 µg/mL (≈ 23.7 to 47.4 µM). The MIC [4, 15] was 8 µg/mL (≈ 23.7 µM), the MBEC [5, 14] was >128 µg/mL and the MIC [5, 15] was 4 to 8 µg/mL (≈ 11.9 to 23.7 µM).

With `CO[C@H]1/C=C/O[C@@]2(C)Oc3c(C)c(O)c4c(O)c(c(/C=N/N5CCN(C)CC5)c(O)c4c3C2=O)NC(=O)/C(C)=C\C=C\[C@H](C)[C@H](O)[C@@H](C)[C@@H](O)[C@@H](C)[C@H](OC(C)=O)[C@@H]1C` [Rifampicin, rifampicin] the MBEC [3, 14] was 0.25 to 4 µg/mL, the MIC [3, 15] was < 0.03 µg/mL and the MBEC [4, 14] was 4 µg/mL. The MIC [4, 15] was < 0.02 µg/mL, the MBEC [5, 14] was 4 µg/mL and the MIC [5, 15] was 0.03 to 0.06 µg/mL (≈ 0.0365 to 0.0729 µM). The “estimated fCmax in plasma” value [6] was 2 µg/mL.

Work on `COc1c(N2C[C@@H]3CCCN[C@@H]3C2)c(F)cc2c(=O)c(C(=O)O)cn(C3CC3)c12` [MOX, moxifloxacin] yielded an MBEC in combination ([7]; combination of ORI and MOX required for sterilization) of 4 mg/L.

In the case of `CO[C@H]1/C=C/O[C@@]2(C)Oc3c(C)c(O)c4c(c3C2=O)C2=NC3(CCN(CC(C)C)CC3)NC2=C(NC(=O)/C(C)=C\C=C\[C@H](C)[C@H](O)[C@@H](C)[C@@H](O)[C@@H](C)[C@H](OC(C)=O)[C@@H]1C)C4=O` [RFB, rifabutin], the MBEC in combination ([7]; combination of ORI and RFB required for sterilization) is reported as 0.125 mg/L.

With `CN[C@H](CC(C)C)C(=O)N[C@H]1C(=O)N[C@@H](CC(N)=O)C(=O)N[C@H]2C(=O)N[C@H]3C(=O)N[C@H](C(=O)N[C@H](C(=O)O)c4cc(O)cc(O)c4-c4cc3ccc4O)[C@H](O)c3ccc(c(Cl)c3)Oc3cc2cc(c3O[C@@H]2O[C@H](CO)[C@@H](O)[C@H](O)[C@H]2O[C@H]2C[C@](C)(N)[C@H](O)[C@H](C)O2)Oc2ccc(cc2Cl)[C@H]1O` [Vancomycin, vancomycin] the “less killing activity against stationary-phase cells compared to exponential-phase cells” value [8] was “approx 2.4 log”, the “dissipation of membrane potential (DiSC3(5) fluorescence)” value (“dissipation of membrane potential” for short) ([9]; exponential-phase cells) was “no effect on membrane potential” and the “dissipation of membrane potential” value ([9]; stationary-phase cells) was “no effect on membrane potential”. For the same molecule, the “membrane permeability (SYTO-9 fluorescence)” value (“membrane permeability” for short) ([10]; exponential-phase cells) was “no effect on fluorescence”, the “membrane permeability” value ([10]; stationary-phase cells) was “no effect on fluorescence” and the “killing over short time course” value ([11]; exponential-phase cells) was “did not effect any change”. For the same molecule, the “killing over short time course” value ([11]; stationary-phase cells) was “did not effect any change”, the septal mid-line staining [12] was “evident” and the MBEC [3, 14] was ≥128 µg/mL. The MIC ([3]; 24 h) was 1 to 2 µg/mL (≈ 0.69 to 1.38 µM), the MBEC [4, 14] was >128 µg/mL and the MIC ([4]; 24 h) was 1 µg/mL (≈ 0.69 µM). The MIC ([4]; 72 h, read-out: planktonic MIC) was 2 to 16 µg/mL (≈ 1.38 to 11 µM), the MBEC [5, 14] was >128 µg/mL and the MIC ([5]; 24 h) was > 128 µg/mL. For the same molecule, the “time required to exert bactericidal activity” value [13] was 24 h and the “estimated free trough concentration in plasma” value ([6]; humans, standard dose (oritavancin 200 mg)) was 4 µg/mL.

For `CCCCCCCCCC(=O)N[C@@H](Cc1c[nH]c2ccccc12)C(=O)N[C@H](CC(N)=O)C(=O)N[C@@H](CC(=O)O)C(=O)N[C@@H]1C(=O)NCC(=O)N[C@@H](CCCN)C(=O)N[C@@H](CC(=O)O)C(=O)N[C@H](C)C(=O)N[C@@H](CC(=O)O)C(=O)NCC(=O)N[C@H](CO)C(=O)N[C@@H]([C@H](C)CC(=O)O)C(=O)N[C@@H](CC(=O)c2ccccc2N)C(=O)O[C@@H]1C` [Daptomycin, daptomycin], the “dissipation of membrane potential” value ([9]; exponential-phase cells) was “small effect”, the “dissipation of membrane potential” value ([9]; stationary-phase cells) was “did not effect changes” and the “membrane permeability” value ([10]; exponential-phase cells) was “loss of fluorescence”. The “membrane permeability” value ([10]; stationary-phase cells) was “no effect”, the “killing over short time course” value ([11]; exponential-phase cells) was “Rapid killing” and the “reduction in CFU” value ([11]; stationary-phase cells, within the 2-hour time period, oritavancin at fCmax 800, daptomycin at fCmax) was 0.7 log. The “estimated fCmax in plasma” value [6] was 4 µg/mL.
